Results: ChEMBL document CHEMBL5465560, “Selectivity Literature for EUbOPEN Chemogenomic Library” (2024)

Key:
[1] = biological target: T1, Myotonin-protein kinase (Homo sapiens) (UniProt Q09013); test: Selectivity interaction (KinomeScan (DiscoverX)) EUB0000666a DMPK; conditions: at 10 µM
T1 sequence (whole entry): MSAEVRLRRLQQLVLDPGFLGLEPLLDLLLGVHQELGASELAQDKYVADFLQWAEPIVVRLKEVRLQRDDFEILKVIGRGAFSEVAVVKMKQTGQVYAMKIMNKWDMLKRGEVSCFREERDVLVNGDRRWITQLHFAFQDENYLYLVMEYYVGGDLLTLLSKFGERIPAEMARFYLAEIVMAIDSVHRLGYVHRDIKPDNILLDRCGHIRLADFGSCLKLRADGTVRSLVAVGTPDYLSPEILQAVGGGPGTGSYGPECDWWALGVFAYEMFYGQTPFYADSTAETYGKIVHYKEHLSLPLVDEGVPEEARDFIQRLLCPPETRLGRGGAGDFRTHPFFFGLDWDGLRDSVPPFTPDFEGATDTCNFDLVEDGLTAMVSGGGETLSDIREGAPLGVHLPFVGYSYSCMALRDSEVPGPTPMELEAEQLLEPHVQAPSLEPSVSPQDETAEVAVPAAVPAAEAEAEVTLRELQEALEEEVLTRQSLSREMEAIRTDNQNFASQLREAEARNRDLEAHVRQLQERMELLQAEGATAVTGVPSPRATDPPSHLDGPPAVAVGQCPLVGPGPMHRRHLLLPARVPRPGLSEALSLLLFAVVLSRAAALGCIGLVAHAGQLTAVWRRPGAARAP

[2] = biological target: Prostaglandin G/H synthase 1 (Homo sapiens) (UniProt P23219); test: Selectivity interaction (Safety Panel 44tm (Eurofins)) EUB0000162b PTGS1; conditions: at 10 µM
Chain of Prostaglandin G/H synthase 1 (Homo sapiens) (P23219 whole entry): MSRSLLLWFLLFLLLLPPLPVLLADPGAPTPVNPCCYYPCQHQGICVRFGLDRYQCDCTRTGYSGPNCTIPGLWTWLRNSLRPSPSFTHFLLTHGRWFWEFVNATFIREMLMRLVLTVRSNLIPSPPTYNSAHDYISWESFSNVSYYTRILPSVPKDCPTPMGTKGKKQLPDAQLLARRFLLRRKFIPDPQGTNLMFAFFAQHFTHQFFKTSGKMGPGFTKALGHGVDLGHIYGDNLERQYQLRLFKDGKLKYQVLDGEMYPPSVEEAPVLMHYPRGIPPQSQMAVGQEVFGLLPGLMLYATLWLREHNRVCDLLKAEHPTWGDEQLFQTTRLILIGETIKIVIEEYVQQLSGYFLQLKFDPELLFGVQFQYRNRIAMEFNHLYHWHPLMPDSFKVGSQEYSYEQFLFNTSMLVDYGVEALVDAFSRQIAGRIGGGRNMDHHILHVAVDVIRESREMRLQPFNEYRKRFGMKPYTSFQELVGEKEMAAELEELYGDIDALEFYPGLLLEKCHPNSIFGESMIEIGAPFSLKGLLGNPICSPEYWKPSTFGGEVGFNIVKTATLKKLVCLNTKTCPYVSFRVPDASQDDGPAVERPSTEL

[3] = biological target: T2, Mitogen-activated protein kinase 12 (Homo sapiens) (UniProt P53778); test: Selectivity interaction (ProQinase) EUB0000171b MAPK12
T2 sequence (whole entry): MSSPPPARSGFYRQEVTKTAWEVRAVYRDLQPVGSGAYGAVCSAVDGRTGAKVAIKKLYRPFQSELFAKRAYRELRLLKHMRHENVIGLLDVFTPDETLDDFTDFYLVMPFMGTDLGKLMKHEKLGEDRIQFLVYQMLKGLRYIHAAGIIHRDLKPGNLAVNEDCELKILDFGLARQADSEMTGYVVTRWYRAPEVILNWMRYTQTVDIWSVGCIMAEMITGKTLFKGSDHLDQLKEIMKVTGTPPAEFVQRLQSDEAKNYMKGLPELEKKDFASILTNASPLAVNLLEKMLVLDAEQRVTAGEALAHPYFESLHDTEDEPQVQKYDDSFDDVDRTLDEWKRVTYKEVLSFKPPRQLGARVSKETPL

[4] = biological target: T3, MAP/microtubule affinity-regulating kinase 4 (Homo sapiens) (UniProt Q96L34); test: Selectivity interaction (ProQinase) EUB0000171b MARK4
T3 sequence (whole entry): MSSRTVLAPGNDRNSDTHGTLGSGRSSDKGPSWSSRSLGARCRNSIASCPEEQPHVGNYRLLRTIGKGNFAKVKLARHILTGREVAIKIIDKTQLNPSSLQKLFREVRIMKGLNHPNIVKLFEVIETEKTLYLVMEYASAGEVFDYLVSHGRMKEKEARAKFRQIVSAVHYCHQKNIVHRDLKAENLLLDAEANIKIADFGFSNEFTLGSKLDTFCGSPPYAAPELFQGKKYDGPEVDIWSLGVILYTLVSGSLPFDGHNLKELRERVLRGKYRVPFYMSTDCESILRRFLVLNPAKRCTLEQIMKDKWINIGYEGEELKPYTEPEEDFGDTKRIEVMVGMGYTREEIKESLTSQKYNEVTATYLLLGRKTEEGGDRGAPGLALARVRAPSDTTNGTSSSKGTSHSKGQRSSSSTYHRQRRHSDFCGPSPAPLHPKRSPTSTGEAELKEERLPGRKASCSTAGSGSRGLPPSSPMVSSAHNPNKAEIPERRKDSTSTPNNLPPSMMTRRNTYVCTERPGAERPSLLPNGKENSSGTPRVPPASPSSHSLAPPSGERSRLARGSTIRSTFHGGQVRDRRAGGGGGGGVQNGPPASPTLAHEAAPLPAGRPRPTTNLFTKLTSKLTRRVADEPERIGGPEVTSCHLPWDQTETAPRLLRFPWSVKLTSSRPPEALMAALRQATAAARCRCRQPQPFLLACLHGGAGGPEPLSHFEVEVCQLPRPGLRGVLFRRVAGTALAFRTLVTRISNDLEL

[5] = biological target: T4, Inhibitor of nuclear factor kappa-B kinase subunit alpha (Homo sapiens) (UniProt O15111); test: Selectivity interaction (ActivX KiNativ screen (ex vivo kinase selectivity in human PBMCs)) EUB0001619a CHUK; format: cell-based; conditions: PBMC, at 1 µM
T4 sequence (whole entry): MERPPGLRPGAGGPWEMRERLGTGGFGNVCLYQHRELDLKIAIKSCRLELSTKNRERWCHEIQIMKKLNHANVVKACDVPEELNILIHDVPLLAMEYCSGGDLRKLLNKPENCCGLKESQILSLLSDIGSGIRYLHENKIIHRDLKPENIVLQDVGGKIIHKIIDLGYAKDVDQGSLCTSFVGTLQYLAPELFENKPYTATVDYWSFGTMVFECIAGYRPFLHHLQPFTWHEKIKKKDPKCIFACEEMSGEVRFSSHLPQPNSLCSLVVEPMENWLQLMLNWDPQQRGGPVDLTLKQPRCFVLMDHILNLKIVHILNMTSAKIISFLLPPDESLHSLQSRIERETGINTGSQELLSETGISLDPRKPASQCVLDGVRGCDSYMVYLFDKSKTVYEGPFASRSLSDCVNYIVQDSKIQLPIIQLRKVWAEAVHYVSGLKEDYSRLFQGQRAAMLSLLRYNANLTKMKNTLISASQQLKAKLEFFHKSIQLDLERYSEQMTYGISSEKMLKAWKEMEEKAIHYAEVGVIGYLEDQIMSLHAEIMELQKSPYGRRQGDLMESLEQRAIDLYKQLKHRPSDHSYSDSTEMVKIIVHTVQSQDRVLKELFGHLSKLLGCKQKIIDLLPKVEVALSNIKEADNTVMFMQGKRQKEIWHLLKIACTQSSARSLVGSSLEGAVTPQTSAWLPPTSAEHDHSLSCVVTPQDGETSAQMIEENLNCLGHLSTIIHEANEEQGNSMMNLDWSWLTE

[6] = biological target: LIM domain kinase 1 (Homo sapiens) (UniProt P53667); test: Selectivity interaction (KinomeScan (DiscoverX)) EUB0000618a LIMK1; conditions: at 10 µM
Chain of LIM domain kinase 1 (Homo sapiens) (P53667 whole entry, looked up, the tested form may be a part): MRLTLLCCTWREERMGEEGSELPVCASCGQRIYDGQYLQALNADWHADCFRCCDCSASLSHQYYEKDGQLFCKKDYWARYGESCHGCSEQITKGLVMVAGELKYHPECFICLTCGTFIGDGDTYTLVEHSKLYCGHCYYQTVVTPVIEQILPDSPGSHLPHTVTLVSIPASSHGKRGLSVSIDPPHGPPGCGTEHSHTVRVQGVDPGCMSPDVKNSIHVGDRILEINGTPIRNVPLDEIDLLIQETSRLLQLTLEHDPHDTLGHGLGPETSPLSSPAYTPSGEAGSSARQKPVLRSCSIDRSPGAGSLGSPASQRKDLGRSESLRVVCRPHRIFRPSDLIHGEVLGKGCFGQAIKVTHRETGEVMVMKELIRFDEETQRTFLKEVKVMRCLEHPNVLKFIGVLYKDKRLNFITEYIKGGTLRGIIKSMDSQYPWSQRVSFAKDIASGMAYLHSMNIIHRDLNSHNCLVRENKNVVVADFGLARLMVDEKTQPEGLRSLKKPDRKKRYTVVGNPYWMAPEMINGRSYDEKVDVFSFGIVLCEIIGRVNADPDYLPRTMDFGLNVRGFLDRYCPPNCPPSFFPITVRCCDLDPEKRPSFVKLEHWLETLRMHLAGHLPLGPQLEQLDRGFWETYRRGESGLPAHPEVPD

[7] = biological target: 5'-AMP-activated protein kinase catalytic subunit alpha-1 (Homo sapiens, UniProt Q13131); test: Selectivity interaction (KinomeScan (DiscoverX)) EUB0000618a PRKAA1; conditions: at 10 µM
Chain of 5'-AMP-activated protein kinase catalytic subunit alpha-1 (Q13131 whole entry, looked up): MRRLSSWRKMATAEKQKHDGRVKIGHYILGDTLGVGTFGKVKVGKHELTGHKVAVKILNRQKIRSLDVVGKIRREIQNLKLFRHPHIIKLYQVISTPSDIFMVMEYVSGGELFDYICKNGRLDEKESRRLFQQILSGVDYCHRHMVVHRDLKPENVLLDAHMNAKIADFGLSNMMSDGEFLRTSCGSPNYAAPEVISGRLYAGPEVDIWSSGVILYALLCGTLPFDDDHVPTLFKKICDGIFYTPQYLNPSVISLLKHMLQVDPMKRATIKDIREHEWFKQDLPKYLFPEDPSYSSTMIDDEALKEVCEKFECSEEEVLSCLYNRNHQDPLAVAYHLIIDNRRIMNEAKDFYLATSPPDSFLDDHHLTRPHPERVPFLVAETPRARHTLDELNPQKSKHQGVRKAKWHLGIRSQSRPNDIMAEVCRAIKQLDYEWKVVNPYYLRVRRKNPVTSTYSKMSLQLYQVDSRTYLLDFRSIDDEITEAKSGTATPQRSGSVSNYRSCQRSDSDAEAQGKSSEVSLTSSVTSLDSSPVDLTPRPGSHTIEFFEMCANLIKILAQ

[8] = biological target: Serine/threonine-protein kinase 38 (Homo sapiens) (UniProt Q15208); test: Selectivity interaction (ActivX KiNativ screen (kinase selectivity in THP-1 cell lysates)) EUB0000639a STK38; format: subcellular; conditions: lysate, at 0.2 µM
Chain of Serine/threonine-protein kinase 38 (Homo sapiens) (Q15208 2-465 limits assumed): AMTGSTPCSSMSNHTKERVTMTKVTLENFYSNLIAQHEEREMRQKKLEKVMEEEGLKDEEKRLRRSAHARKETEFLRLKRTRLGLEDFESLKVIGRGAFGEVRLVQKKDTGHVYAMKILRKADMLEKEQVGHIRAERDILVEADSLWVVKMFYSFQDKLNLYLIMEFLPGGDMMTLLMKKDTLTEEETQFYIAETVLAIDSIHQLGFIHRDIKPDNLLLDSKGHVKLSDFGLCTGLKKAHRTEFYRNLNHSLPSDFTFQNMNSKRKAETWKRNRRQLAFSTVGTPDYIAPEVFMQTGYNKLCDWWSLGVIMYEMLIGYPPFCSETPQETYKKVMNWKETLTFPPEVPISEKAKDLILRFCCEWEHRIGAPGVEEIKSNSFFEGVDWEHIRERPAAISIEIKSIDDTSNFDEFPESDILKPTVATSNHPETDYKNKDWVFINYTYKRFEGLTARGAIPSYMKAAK

## O=C(NOC[C@H](O)CO)c1ccc(F)c(F)c1Nc1ccc(I)cc1F
[1]
  % of control: 90%

## CN(C)C(=O)Cn1cc(-c2ccc(-c3cncc4ccccc34)cc2)cn1
[2]
  % of control: 59%

## C=CC(=O)Nc1cccc(C(=O)Nc2ccc(Nc3cc(-c4[nH]c(SC)nc4C)ccn3)cc2)c1
[3]; at 1 µM
  % of control: 94%
[3]; at 5 µM
  % of control: 87%
[4]; at 1 µM
  % of control: 92%
[4]; at 5 µM
  % of control: 99%

## N#Cc1cccc(-c2c[nH]c3ncnc(N4CCOCC4)c23)c1
[5]
  % of inhibition: -7%

## O[C@H]1CC[C@H](Nc2ncc3nc(Nc4c(F)cc(F)cc4F)n([C@H]4CCOC4)c3n2)CC1
[6]
  % of control: 35%
[7]
  % of control: 99%

## CC[C@@H]1[C@H](F)C(=O)N[C@@H]1COc1nccc2cc(C(N)=O)c(OC)cc12 [ZIMLOVISERTIB]
[8]
  % of inhibition: 22.6%
